Legend:
[1] = molecular target: T1, 5-HT uptake (Rattus norvegicus, UniProt P31652); assay: Inhibition of 5-HT uptake in rat brain synaptosomes; type: biochemical; details: rat synaptosomes (medulla and pons), [3H]-5-HT
T1 construct: from tissue; host or cells: rat brain synaptosomes (P2 fraction) from marrow (medulla) and pons
Protocol: The relevant literature reference is enclosed herein by reference and is to be regarded as part of the disclosure.
The homogenate is centrifuged at 4° C. for 10 minutes at 1000 g. Following subsequent centrifugation at 17,000 g for 55 minutes, the synaptosomes (P2 fraction) are obtained, which are then resuspended in 0.32 M […] (0.5 mL/100 mg of the original weight).
The respective uptake was measured in a 96 well microtiter plate. The volume was 250 μL and the incubation was carried out at room temperature (ca 20-25° C.) under a blanket of oxygen.
The 96 samples through were then filtered through a Unifilter GF/B® microtiter plate (Packard) and washed with 200 mL of incubated buffer with the aid of a “Brabdel Cell-Harvester MPXRI 96T”. The Unifilter GF/B plate was dried at 55° C. over a period of 1 h. The plate was then sealed with a back seal® (Packard) and there were then added 35 μL of scintillant fluid per well (Ultima Gold, Packard).
A detailed description of the method is disclosed in the literature, for example, in M. Ch.

[2] = molecular target: T2, NA transporter (Rattus norvegicus, UniProt Q63380); assay: Inhibition of noradrenaline uptake in rat brain synaptosomes; type: biochemical; details: 10 μM, rat synaptosomes (hypothalamus), [3H]-NA; for inhibition at 10 µM: read-out: % Inhibition of NA uptake [10 μM]
T2 construct: from tissue; host or cells: rat brain synaptosomes (P2 fraction) from hypothalamus
Protocol: II. […] For in vitro studies, synaptosomes of rat brain areas are freshly isolated, as described in the article “The isolation of nerve endings from brain” by E. G. Gray and […]. Anatomy 96, pages 79-88, 1962. The relevant literature reference is enclosed herein by reference and is to be regarded as part of the disclosure. […] The homogenate is centrifuged at 4° C. for 10 minutes at 1000 g. […] The respective uptake was measured in a 96 well microtiter plate. The volume was 250 μL and the incubation was carried out at room temperature (ca 20-25° C.) under a blanket of oxygen. […] The 96 samples through were then filtered through a Unifilter GF/B® microtiter plate (Packard) and washed with 200 mL of incubated buffer with the aid of a “Brabdel Cell-Harvester MPXRI 96T”. The Unifilter GF/B plate was dried at 55° C. over a period of 1 h. The plate was then sealed with a back seal® (Packard) and there were then added 35 μL of scintillant fluid per well (Ultima Gold, Packard). Following sealing with a top seal® (Packard) and following adjustment of the equilibrium (approximately over a period of 5 h), the radioactivity is determined in a 1450 Microbeta® (Wallac). […] The amount of protein used in the above determination corresponded to the values known from the literature, such as is described in “Protein measurement with the folin phenol reagent”, Lowry et al., J. Biol. Chem., 193, 265-275, 1951. A detailed description of the method is disclosed in the literature, for example, in […], and B. […] The relevant literature references are incorporated herein by reference and are to be regarded as part of the disclosure.

T2 sequence (Q63380 1-617): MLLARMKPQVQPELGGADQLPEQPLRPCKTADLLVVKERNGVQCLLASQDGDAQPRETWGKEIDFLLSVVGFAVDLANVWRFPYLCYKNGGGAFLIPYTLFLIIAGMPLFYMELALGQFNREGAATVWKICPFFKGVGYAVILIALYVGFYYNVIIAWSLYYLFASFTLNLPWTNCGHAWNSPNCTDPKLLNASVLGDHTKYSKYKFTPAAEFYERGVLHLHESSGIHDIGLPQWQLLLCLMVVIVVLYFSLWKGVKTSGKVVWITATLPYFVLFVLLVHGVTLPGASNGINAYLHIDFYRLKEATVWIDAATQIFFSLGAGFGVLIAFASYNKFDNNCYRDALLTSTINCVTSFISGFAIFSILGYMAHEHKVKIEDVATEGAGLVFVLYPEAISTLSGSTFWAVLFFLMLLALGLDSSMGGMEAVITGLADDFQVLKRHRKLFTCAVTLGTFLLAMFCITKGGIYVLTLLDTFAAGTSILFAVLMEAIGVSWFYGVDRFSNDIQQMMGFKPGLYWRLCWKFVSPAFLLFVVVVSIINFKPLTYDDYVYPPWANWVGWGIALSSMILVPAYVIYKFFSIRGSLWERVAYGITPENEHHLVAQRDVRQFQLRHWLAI
T1 sequence (P31652 whole entry): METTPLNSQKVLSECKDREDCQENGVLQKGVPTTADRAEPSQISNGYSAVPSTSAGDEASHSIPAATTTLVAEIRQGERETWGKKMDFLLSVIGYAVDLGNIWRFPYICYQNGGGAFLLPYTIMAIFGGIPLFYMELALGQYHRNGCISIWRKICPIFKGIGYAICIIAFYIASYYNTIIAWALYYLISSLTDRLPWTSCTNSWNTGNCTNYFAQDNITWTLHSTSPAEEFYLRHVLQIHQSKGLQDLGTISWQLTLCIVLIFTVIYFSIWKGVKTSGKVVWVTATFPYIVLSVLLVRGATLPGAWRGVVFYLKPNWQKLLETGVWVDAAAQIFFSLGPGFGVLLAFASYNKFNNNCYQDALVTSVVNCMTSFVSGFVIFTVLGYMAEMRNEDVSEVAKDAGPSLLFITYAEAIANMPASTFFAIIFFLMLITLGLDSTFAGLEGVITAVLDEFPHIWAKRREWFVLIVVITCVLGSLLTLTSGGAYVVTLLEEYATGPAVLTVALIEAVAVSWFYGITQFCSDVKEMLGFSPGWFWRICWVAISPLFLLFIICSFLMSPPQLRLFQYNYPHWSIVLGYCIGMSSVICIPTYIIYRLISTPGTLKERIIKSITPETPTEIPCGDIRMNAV

SMILES | inhibition at 10 µM [1] [%] | inhibition at 10 µM [2] [%] | further results
CC(=O)c1ccc(N2CCN(C(=O)C3CCCc4sc(NC(=O)c5ccco5)nc43)CC2)cc1 (stereo not shown) [Example 8, Furan-2-carboxylic acid{4-[4-(4-acetylphenyl)piperazin-1-carbonyl]-4,5,6,7-tetrahydrobenzthiazol-2-yl}amide] |  |  | % Inhibition of 5-HT uptake [10 μM] [1]: 89%; % Inhibition of NA uptake [10 μM] [2]: 78%
CC(C(=O)Nc1nc2c(s1)CCCC2C(=O)N1CCN(C(C)C)CC1)c1ccccc1 (stereo not shown) [Example 10, N-[4-(4-Isopropylpiperazin-1-carbonyl)-4,5,6,7-tetrahydrobenzthiazol-2-yl]-2-phenylpropionamide] | 42 | 64 | 
CC(C(=O)Nc1nc2c(s1)CCCC2C(=O)NC1CCN(Cc2ccc(Oc3ccccc3)cc2)C1)c1ccccc1 (stereo not shown) [Example 15, 2-(2-Phenylpropionylamino)-4,5,6,7-tetrahydrobenzthiazol-4-carboxylic acid[1-(4-phenoxybenzyl)pyrrolidin-3-yl]amide] |  |  | % Inhibition of NA uptake [10 μM] [2]: 91%
O=C(Nc1nc2c(s1)CCCC2C(=O)NCCN1CCCCCC1)c1ccoc1 (stereo not shown) [Example 16, 2-[(Furan-3-carbonyl)amino]-4,5,6,7-tetrahydrobenzthiazol-4-carboxylic acid (2-azepan-1-ylethyl)amide] |  | 88 | 
CC(C(=O)Nc1nc2c(s1)CCCC2C(=O)NCCN(C)C)c1ccccc1 (stereo not shown) [Example 19, 2-(2-Phenylpropionylamino)-4,5,6,7-tetrahydrobenzthiazol-4-carboxylic acid (2-dimethylaminoethyl)amide] |  | 71 | 
CC(C(=O)Nc1nc2c(s1)CCCC2C(=O)NCC1CCN(Cc2ccccc2OCc2ccccc2)C1)c1ccccc1 (stereo not shown) [Example 36, 2-(2-Phenylpropionylamino)-4,5,6,7-tetrahydrobenzthiazol-4-carboxylic acid[1-(2-benzyloxybenzyl)pyrrolidin-3-yl]methylamide] |  |  | % Inhibition of NA uptake [10 μM] [2]: 62%
CCN(CC)CCNC(=O)C1CCCc2sc(NC(=O)CCc3ccccc3)nc21 (stereo not shown) [Example 38, 2-(3-Phenylpropionylamino)-4,5,6,7-tetrahydrobenzthiazol-4-carboxylic acid (2-diethylaminoethyl)amide] |  | 42 | 
N#Cc1ccccc1N1CCN(C(=O)C2CCCc3sc(NC(=O)c4ccco4)nc32)CC1 (stereo not shown) [Example 47, Furan-2-carboxylic acid{4-[4-(2-cyan-phenyl)piperazin-1-carbonyl]-4,5,6,7-tetrahydrobenzthiazol-2-yl]-amide] |  |  | % Inhibition of NA uptake [10 μM] [2]: 47%
CCCCCC(=O)Nc1nc2c(s1)CCCC2C(=O)N1CCN(c2ccccc2F)CC1 (stereo not shown) [Example 52, Hexanoic acid{4-[4-(2-fluorophenyl)piperazin-1-carbonyl]-4,5,6,7-tetrahydrobenzthiazol-2-yl}amide] |  |  | % Inhibition of NA uptake [10 μM] [2]: 72%
CN(C(=O)C1CCCc2sc(NC(=O)COc3ccccc3)nc21)C1CCN(Cc2ccccc2C(F)(F)F)C1 (stereo not shown) [Example 54, 2-(2-Phenoxyacetylamino)-4,5,6,7-tetrahydrobenzthiazol-4-carboxylic acid methyl-[1-(2-trifluoromethylbenzyl)pyrrolidin-3-yl]amide] |  | 44 | 
COc1ccccc1CC(=O)Nc1nc2c(s1)CCCC2C(=O)NCC1CCN(Cc2cc3ccccc3o2)C1 (stereo not shown) [Example 56, 2-[2-(2-Methoxyphenyl)acetylamino]-4,5,6,7-tetrahydrobenzthiazol-4-carboxylic acid (1-benzofuran-2-ylmethylpyrrolidin-3-yl)methylamide] |  | 49 | 
CN(C)c1ccc(CNC(=O)C2CCCc3sc(NC(=O)c4ccco4)nc32)cc1 (stereo not shown) [Example 58, 2-[(Furan-2-carbonyl)amino]-4,5,6,7-tetrahydrobenzthiazol-4-carboxylic acid 4-dimethylaminobenzylamide] |  | 72 | 
COc1ccc(N2CCN(C(=O)C3CCCc4sc(NC(=O)C(C)c5ccccc5)nc43)CC2C)cc1 (stereo not shown) [Example 60, N-{4-[4-(4-Methoxyphenyl)-3-methylpiperazin-1-carbonyl]-4,5,6,7-tetrahydrobenzthiazol-2-yl}-2-phenylpropionamide] |  | 41 | 
CC(c1ccccc1)N1CCN(C(=O)C2CCCc3sc(NC(=O)COc4ccccc4)nc32)CC1 (stereo not shown) [Example 66, 2-Phenoxy-N-{4-[4-(1-phenylethyl)piperazin-1-carbonyl]-4,5,6,7-tetrahydrobenzthiazol-2-yl}acetamide] |  | 48 | 
N#Cc1ccccc1N1CCN(C(=O)C2CCCc3sc(NC(=O)CCc4ccccc4)nc32)CC1 (stereo not shown) [Example 77, N-{4-[4-(2-Cyan-phenyl)piperazin-1-carbonyl]-4,5,6,7-tetrahydrobenzthiazol-2-yl}-3-phenylpropionamide] |  |  | % Inhibition of NA uptake [10 μM] [2]: 44%
COc1ccc2ccccc2c1CN1CCN(C(=O)C2CCCc3sc(NC(=O)CC(C)(C)C)nc32)CC1 (stereo not shown) [Example 79, N-{4-[4-(2-Methoxynaphthalene-1-ylmethyl)piperazin-1-carbonyl]-4,5,6,7-tetrahydrobenzthiazol-2-yl}-3,3-dimethylbutyramide] |  | 71 | 
CCOc1cc(N2CCOCC2)c(OCC)cc1NC(=O)C1CCCc2sc(NC(=O)CC(C)(C)C)nc21 (stereo not shown) [Example 80, 2-(3,3-Dimethylbutyrylamino)-4,5,6,7-tetrahydrobenzthiazol-4-carboxylic acid (2,5-diethoxy-4-morpholin-4-ylphenyl)amide] | 52 |  | 
O=C(Cc1cc(F)cc(F)c1)Nc1nc2c(s1)CCCC2C(=O)N1CCN(C(c2ccccc2)c2ccccc2)CC1 (stereo not shown) [Example 83, N-[4-(4-Benzhydrylpiperazin-1-carbonyl)-4,5,6,7-tetrahydrobenzthiazol-2-yl]-2-(3,5-difluorophenyl)acetamide] | 44 |  | 
CC(C)(C)CC(=O)Nc1nc2c(s1)CCCC2C(=O)N1CCN(c2ccc(C(F)(F)F)cn2)CC1 (stereo not shown) [Example 86, 3,3-Dimethyl-N-{4-[4-(5-trifluoromethylpyridin-2-yl)piperazin-1-carbonyl]-4,5,6,7-tetrahydrobenzthiazol-2-yl}butyramide] | 54 |  | 

Now from value to compound, other results behind:

inhibition at 10 µM [1] [%] | inhibition at 10 µM [2] [%] | SMILES | further results
61 | 65 | CC(C(=O)Nc1nc2c(s1)CCCC2C(=O)NCCCN(C)C)c1ccccc1 (stereo not shown) [Example 3, 2-(2-Phenylpropionylamino)-4,5,6,7-tetrahydrobenzthiazol-4-carboxylic acid (3-dimethylaminopropyl)amide] | 
51 | 48 | COc1ccc(N2CCN(C(=O)C3CCCc4sc(NC(=O)c5ccccc5)nc43)CC2C)cc1 (stereo not shown) [Example 7, N-{4-[4-(4-Methoxyphenyl)-3-methylpiperazin-1-carbonyl]-4,5,6,7-tetrahydrobenzthiazol-2-yl]-benzamide] | 
53 | 98 | COc1cc(OC)c(CN2CCC(NC(=O)C3CCCc4sc(NC(=O)c5ccco5)nc43)C2)c(OC)c1 (stereo not shown) [Example 9, 2-[(Furan-2-carbonyl)amino]-4,5,6,7-tetrahydrobenzthiazol-4-carboxylic acid [1-(-2,4,6-trimethoxybenzyl)pyrrolidin-3-yl]amide] | 
 | 57 | O=C(C=Cc1ccco1)Nc1nc2c(s1)CCCC2C(=O)N1CCN(Cc2ccsc2)CC1 (stereo not shown) [Example 11, 3-Furan-2-yl-N-[4-(4-thiophen-3-ylmethylpiperazin-1-carbonyl)-4,5,6,7-tetrahydrobenzthiazol-2-yl]acrylamide] | 
53 |  | O=C(Cc1cccs1)Nc1nc2c(s1)CCCC2C(=O)N1CCN(C(c2ccccc2)c2ccccc2)CC1 (stereo not shown) [Example 84, N-[4-(4-Benzhydrylpiperazin-1-carbonyl)-4,5,6,7-tetrahydrobenzthiazol-2-yl]-2-thiophen-2-ylacetamide] | 
48 |  | CCOc1ccccc1C(=O)Nc1nc2c(s1)CCCC2C(=O)N1CCN(c2ccccc2Cl)CC1 (stereo not shown) [Example 85, N-{4-[4-(2-Chlorophenyl)piperazin-1-carbonyl]-4,5,6,7-tetrahydrobenzthiazol-2-yl}-2-ethoxybenzamide] | 
41 |  | O=C(CC1CCCCC1)Nc1nc2c(s1)CCCC2C(=O)N1CCN(C(c2ccccc2)c2ccccc2)CC1 (stereo not shown) [Example 88, N-[4-(4-Benzhydrylpiperazin-1-carbonyl)-4,5,6,7-tetrahydrobenzthiazol-2-yl]-2-cyclohexylacetamide] | 

Source: patent US7348347B2, “Substituted 4,5,6,7-tetrahydrobenzthiazol-2-ylamine compounds” (Gruenenthal GmbH, priority 2004, dated 2008)
